Measured values reported in patent US20090203739A1, “Anti-Inflammatory Agents” (priority 2005, published 2009).
Bridges are numbered along the chain shown (N, C = ends). Where no end group is shown, it is not given here. [ ]: non-standard residue; d: D form.

Legend:
[1] = tested on: chemokine-induced migration; details: versus (S)-3-(undec-10-enoyl)-aminoglutarimide; cited from earlier work
Stability in serum = type: in vitro ADME; details: 37° C., completely stable
Source text: As an approach to identifying such stable analogs, various derivatives of (S)-3-(undec-10-enoyl)-aminoglutarimide have been tested for their stability in serum.

[2] = tested on: MCP-1 induced leukocyte migration (THP-1 cells); assay: Inhibition of MCP-1 induced leukocyte migration (96-well transwell assay, THP-1 cells); type: cell-based; details: Homo sapiens, MCP-1 25 ng/ml, 2 hours at 37° C., read-out: ED50 (concentration of compound required to reduce the MCP-1-induced migration by 50%)
Method: In principle, this assay consists of two chambers separated by a porous membrane. The chemoattractant is placed in the lower compartment and the cells are placed in the upper compartment. After incubation for a period at 37° C. the cells move towards the chemoattractant, and the number of cells in the lower compartment is proportional to the chemoattractant activity (relative to a series of controls).
The THP-1 cell line (European Cell culture Collection) were used as the leukocyte cell population.
The following procedure is used for testing the invention compounds for MCP-1 induced leukocyte migration:
First, the cell suspension to be placed in the upper compartment is prepared. The THP-1 cells are pelleted by centrifugation (770×g; 4 mins) and washed with Geys Balanced Salt Solution with 1 mg/ml BSA (GBSS+BSA). This wash is then repeated, and the cells repelleted before being resuspended in a small volume of GBSS+BSA for counting, for example using a standard haemocytometer.
The volume of GBSS+BSA is then adjusted depending on the number of cells present so that the cells are at final density of 4.45×10^6 cells per ml of GBSS+BSA. This ensures that there are […] THP-1 cells in each 25 μl of the solution that will be placed in the upper chamber of the plate.
To test a single compound for its ability to inhibit MCP-1 induced migration, it is necessary to prepare two lots of cells. The suspension of THP-1 cells at 4.45×10^6 cells/ml is divided into two pots. To one pot the inhibitor under test is added at an appropriate final concentration, in an appropriate vehicle (for example at 1 μM in not more than 1% DMSO). To the second pot an equal volume of GBSS+BSA plus vehicle as appropriate (e.g. not more than 1% DMSO) is added to act as a control.
Next, the chemoattractant solution to be placed in the lower compartment is prepared. MCP-1 is diluted in GBSS+BSA to give a final concentration of 25 ng/ml. This is divided into two pots, as for the cell suspension. To one pot, the test compound is added to the same final concentration as was added to the cell suspension, while to the other pot an equal volume of GBSS+BSA plus vehicle as appropriate (e.g. not more than 1% DMSO) is added.
Note that the volume of liquid that needs to be added to make the addition of the text compound needs to be taken into account, when establishing the final concentration of MCP-1 in the solution for the lower compartment and the final concentration of cells in the upper compartment.
Once the chemoattractant solutions for the lower wells and cell solutions for the upper chambers have been prepared, the migration chamber should be assembled. Place 29 μl of the appropriate chemoattractant solution into the lower well of the chamber. Assays should be performed with at least triplicate determinations of each condition. Once all the lower chambers have been filled, apply the prous membrane to the chamber in accordance with the manufacturer's instructions. Finally, apply 25 μl of the appropriate cell solution to each upper chamber. A plastic lid is placed over the entire apparatus to prevent evaporation.
The assembled chamber is incubated at 37° C., 5% CO2, for 2 hours. A suspension of cells in GBSS+BSA is also incubated under identical conditions in a tube: these cells will be used to construct a standard curve for determining the number of cells that have migrated to the lower chamber under each condition. […]

[3] = cited from earlier work

EC50 [2] [µM] | Molecule | also measured
≤ 0.1 | CCCCCCCCCCC(C)(C)C(=O)N[C@H]1CCNC1=O [Example 4, (S)-3-(2′,2′-Dimethyldodecanoylamino)-pyrrolidin-2-one] | –
≤ 0.1 | CC1(C(=O)N[C@H]2CCCNC2=O)CCCCC1 [Example 5, (S)-3-(1′-Methylcyclohexanecarbonyl)amino-tetrahydropyridin-2-one] | –
≤ 0.1 | CC1(C(=O)N[C@H]2CCNC2=O)CCCCC1 [Example 6, (S)-3-(1′-Methylcyclohexanecarbonyl)amino-pyrrolidin-2-one] | –
≤ 0.1 | O=C1NCCC[C@@H]1NC(=O)C1(c2ccccc2)CCCCC1 [Example 7, (S)-3-(1′-Phenylcyclohexanecarbonyl)amino-tetrahydropyridin-2-one] | –

More lines, now with the values behind:

Molecule | EC50 [2] [µM] | also measured
C=CCCCCCCCCC(=O)[C@@H]1CCCNC1=O [(S)-3-(undec-10-enoyl)-tetrahydropyridin-2-one] | – | potency compared with the parental molecule [1]: considerably reduced potency; stability in human serum (Stability in serum): at least 7 days
CCCCCCCCCCC(C)(C)C(=O)N[C@H]1CCCNC1=O [Example 3, (S)-3-(2′,2′-Dimethyldodecanoylamino)-tetrahydropyridin-2-one] | ≤ 0.1 | –
c(DCys-DGln-DIle-DTrp-DLys-DGln-DLys-DPro-DAsp-DLeu-DCys)-NH2 ([dC][dQ][dI][dW][dK][dQ][dK][dP][dD][dL][dC]-NH2; disulfide 1-11 (inferred)) [NR58-3.14.3] | – | half-life period of clearance from blood plasma ([3]; after intravenous injection): less than 30 minutes; oral bioavailability ([3]; in vivo, po): not orally bioavailable
